Reference: US20250319212A1, “GADOLINIUM-BASED COMPOUND, AND MRI CONTRAST AGENT INCLUDING SAME” (KYUNGPOOK NATIONAL UNIVERSITY INDUSTRY-ACADEMIC COOPERATION …, priority 2021, published 2025)

Columns and labels:
[1] = Measurement of relaxivity (r1, r2) in 3T MRI phantom; assay type: physicochemical; conditions: tertiary distilled water, 0.0625-1 mM, linear regression, in mM-1·s-1 (unit assumed)
Protocol: The relaxivity (r1, r2) of each of synthesized Gd-DO3A-Hba, and cyclic commercial contrast agents Gadovist® and Dotarem® as comparison groups material was measured. Specifically, a phantom was prepared by diluting the gadolinium complex in tertiary distilled water to five concentrations (0.0625, 0.125, 0.25, 0.5, 1 mM), and then T1 and T2 relaxation times were measured in 3T MRI. Thus, R (Relaxation rate=1/T) of each concentration was calculated and the relaxivity (r1, r2) result of the gadolinium complex was obtained through linear regression analysis (see FIG. 3) and shown in a following Table 1.

[2] = biological target: amyloid beta polymer (Homo sapiens, UniProt P05067); assay: Amyloid beta polymer targeting ability, phantom experiment on 9.4T MR; assay type: binding; conditions: incubated with amyloid beta polymer 37° C. 24 hours, washed pellet, FIG. 6
Sequence of amyloid beta polymer (P05067 672-713 limits assumed): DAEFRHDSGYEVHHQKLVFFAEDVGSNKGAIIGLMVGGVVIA
Protocol: (1) 221.5 μL of HFIP was added to 1 mg of amyloid beta at a concentration of 1 mM, followed by shaking for 1 hour at room temperature using a shaker to remove preaggregation. (2) The amyloid beta from which the preaggregation was removed was dried, and 221.5 μL of DMSO was added thereto to achieve a 1 mM concentration. Using a mixer and sonicator, a suspension thereof was prepared, and 878.5 μL of PBS (1×, pH 7.4) was added thereto to achieve a 0.2 mM concentration. (3) After incubating the suspension at 37° C. for 4 days using a shaker, the polymerized amyloid beta polymer was dispensed by 200 μL. Then, 20 μL of a solution in which each of Gd-DO3A-Hba and the commercial contrast agent (Gadovist®) was dissolved in PBS at 2 mM concentration was added thereto. The incubation was carried out thereon at 37° C. for 24 hours using a shaker. (4) After 24 hours has elapsed, centrifugation was performed thereon to remove the supernatant therefrom. The amyloid beta polymer was washed using PBS. 200 μL of a solution of PBS:DMSO=9:1 was added to a pellet to prepare an MRI phantom sample. As a control, a phantom sample obtained by incubating only the amyloid beta polymer was used. […]

relaxivity r1 [1]	relaxivity r2 [1]	SMILES	signal intensity / contrast enhancement compared to phantom of only amyloid beta polymer [2]
3.4 ± 0.1	3.9 ± 0.2	O=C([O-])CN1CCN(CC(=O)[O-])CCN(CC(=O)[O-])CCN(CC(=O)[O-])CC1.[Gd+3] [Dotarem ®, Gd-DOTA]	
3.9 ± 0.1	4.9 ± 0.1	O=C([O-])CN1CCN(CC(=O)[O-])CCN([C@H](CO)[C@H](O)CO)CCN(CC(=O)[O-])CC1.[Gd+3] (racemic) [Gadovist ®]	little difference in contrast enhancement effect
